Legend:
[1] = target: T1, G-protein coupled bile acid receptor 1 (Mus musculus, UniProt Q80SS6); assay: (§1) TGR5/CRE Luciferase Assay: In the following tables TGR5 activation by compounds and subsequent increase in intracellular cAMP were evaluated using a luciferase reporter gene assay. Human embryonic kidney (HEK) 293 cells were transiently co-transfected with pCMV tag4b-TGR5 h (to follow hTGR5 activation) or pCMV AC6-TGR5m (to follow mTGR5 activation) expression plasmids and the pCRE TA-Luciferase reporter plasmid using the JET PEI reagent (Polyplus transfection). Transfected cells were seeded in 96-well plates and incubated overnight with the test compounds at increasing concentrations tested in duplicate. Lithocolic acid (LCA) at 10 μM was used as a positive reference compound. The cAMP-dependent luciferase expression was followed using the BrightGlo reagent according to the manufacturer (Promega) instructions. Luminescence was read with a Mithras plate reader (Berthold). Data were expressed as percentage of the 10 μM LCA value and EC50 values were calculated using XL fit 5 software or GraphPad Prism 5. Concentration-response curves were fitted by a nonlinear regression analysis to a 4 parameter logistic equation.; assay type: cell-based
T1 sequence (Q80SS6 whole entry): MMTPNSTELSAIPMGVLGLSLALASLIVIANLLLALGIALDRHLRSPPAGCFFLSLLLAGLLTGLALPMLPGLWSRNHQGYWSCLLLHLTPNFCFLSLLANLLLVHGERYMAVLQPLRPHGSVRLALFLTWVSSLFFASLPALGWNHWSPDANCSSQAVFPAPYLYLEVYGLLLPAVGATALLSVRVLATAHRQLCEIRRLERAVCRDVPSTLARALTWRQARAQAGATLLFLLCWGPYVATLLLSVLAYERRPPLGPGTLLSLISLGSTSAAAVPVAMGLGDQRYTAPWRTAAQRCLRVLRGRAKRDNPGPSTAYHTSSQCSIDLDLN

[2] = target: T2, G-protein coupled bile acid receptor 1 (Homo sapiens, UniProt Q8TDU6); assay: as §1, with “Data were expressed as percentage of the 10 μM LCA value and EC50 values were calculated using XL fit 5 software or GraphPad Prism 5.” left out; assay type: cell-based
T2 sequence (Q8TDU6 whole entry): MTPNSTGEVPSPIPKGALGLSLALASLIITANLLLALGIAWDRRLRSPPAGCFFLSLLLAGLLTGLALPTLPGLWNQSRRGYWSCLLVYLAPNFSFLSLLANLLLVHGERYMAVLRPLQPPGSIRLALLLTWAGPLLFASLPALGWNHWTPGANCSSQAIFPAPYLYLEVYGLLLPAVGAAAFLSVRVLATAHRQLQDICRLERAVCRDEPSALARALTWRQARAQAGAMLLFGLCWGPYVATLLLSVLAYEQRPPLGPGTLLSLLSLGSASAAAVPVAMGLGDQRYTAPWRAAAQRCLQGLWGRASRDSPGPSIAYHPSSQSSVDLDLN

Compound: COCCOCCOCCOCCOCCOCCOCCOCCOCCOc1cc(F)c(CSc2ncc(N(C)c3ccc(OC)c(OC)c3)n2-c2ccc(F)cc2)c(F)c1
- EC50 [1]: 18 nM
- EC50 [2]: 160 nM

Compound: COCCOCCOCCOCCOCCOCCOCCOCCOCCOCCOc1cc(F)c(CSc2ncc(N(C)c3ccc(OC)c(OC)c3)n2-c2ccc(F)cc2)c(F)c1
- EC50 [1]: 29 nM
- EC50 [2]: 580 nM

Compound: COCCOCCOCCOCCOCCOCCOCCOCCOCCOCCOCCOCCOCCOCCOCCOCCOCCOCCOCCOCCOCCOCCOCCOCCOCCOCCOCCOCCOCCOCCOCCOCCOCCOCCOCCOCCOCCOc1cc(F)c(CSc2ncc(N(C)c3ccc(OC)c(OC)c3)n2-c2ccc(F)cc2)c(F)c1
- EC50 [1]: 68 nM
- EC50 [2]: 1200 nM

Compound: COCCOCCOCCOCCOCCOCCOCCOCCOCCOCCOCCOCCOCCOCCOCCOCCOc1cc(F)c(CSc2ncc(N(C)c3ccc(OC)c(OC)c3)n2-c2ccc(F)c(OC)c2)c(F)c1
- EC50 [1]: 26 nM
- EC50 [2]: 330 nM
